Some results are limits rather than exact numbers.

The target in one test is T1, (His)6-hERRγ LBD (Homo sapiens, UniProt P62508).
T1 sequence (P62508 233-457 limits assumed): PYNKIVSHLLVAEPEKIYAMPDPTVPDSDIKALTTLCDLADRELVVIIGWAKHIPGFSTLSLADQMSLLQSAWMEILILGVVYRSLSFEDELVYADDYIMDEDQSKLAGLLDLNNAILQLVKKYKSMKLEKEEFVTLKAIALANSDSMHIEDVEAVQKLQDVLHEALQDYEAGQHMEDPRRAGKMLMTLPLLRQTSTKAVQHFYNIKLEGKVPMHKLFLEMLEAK
Briefly: FRET assay of agonist-induced activation of ERRγ with coactivator peptide PGC-1α. The class given is biochemical. Particulars: for maximal increase in FRET signal: highest concentration tested / saturating concentrations. Here is the method:
The FRET assay is designed to detect agonist-induced activation of ERRγ in the presence of the coactivator peptide PGC-1α. […] Mix 1 contained antibody, hERRγ LBD in buffer in a volume of 19 μL and was added to 30 μL of Mix 2 which contained Cy5-peptide in buffer (1. 6xHis-ERRγ-LBD, 3.6 mg/ml, MW 27 KDa; 2. Cy5-PGC-1 peptide from AnaSpec; 3. Other buffer components from Sigma; 4. EU-antiHis6-Ab from Perkin Elmer; and 5. Test compounds.). The assays were carried out in black 384-well plates and incubated at room temperature for 3 hrs before FRET signals were measured using a Wallac Victor 2 (Perkin Elmer) plate reader. The ratio of emission signals (665 nm/615 nm) was used to determine the FRET assay response. In some cases, the FRET signal to background ratio was used and this is simply defined as the FRET ratio in the presence of protein […] FRET ratio in the absence of protein. The test compounds were dissolved in DMSO at 10 mM and used as indicated.
The ability of agonist compounds to induce an increased FRET response between the Europium-labeled anti-(His)6 antibody/(His)6-hERRγ LBD complex and Cy5-[…] […] The compounds were solubilized in 10 mM DMSO and the concentration range of the titration was from 100 μM down to 2 nM. The final DMSO concentration was 2%. A DMSO control (no compound) at 2% was also prepared. All samples were made in duplicate.

Test [1] has as its system primary mouse myotubes. Briefly: Gene expression by real time quantitative PCR in primary mouse myotubes. The class given is cell-based. As to conditions: 24 h. The procedure: (§1) Primary mouse myoblasts from FVB mice were isolated and maintained as described in Bare et al. For experimentation, mouse myoblasts were grown to 80% confluence in F-10/Ham's media containing 20% fetal bovine serum, 1% Penicillin/Streptomycin and 2.5 ng/mL bFGF (human recombinant). The cells were then plated to 700,000 cells per well in 6-well plates, and allowed to differentiate into myotubes for 36 to 48 hours in DMEM containing 5% equine serum and Penicillin/Streptomycin. […] Assays performed included analysis of gene expression by real time quantitative PCR (RT-PCR), cytochrome c ELISA, citrate synthase assay, fatty acid oxidation assay, and a respiration assay. […] Each dose was tested in trplicate, and a set of wells treated with an equivalent volume of DMSO used was included in every experimental readout for control purposes.
For the purpose of assessing gene expression by RT-PCR, RNA was isolated from cell lysates, and cDNA was subsequently synthesized from this RNA. For RNA isolation, cells were homogenized in TRIzol (Invitrogen, catalog number 15596-026, Carlsbad, Calif.), and total RNA was isolated following the manufacturer's instructions. RNA was quantified using the spectrophotometer.
Reverse transcription was performed using the BD Sprint™ PowerScriptT™ kit from BD Biosciences (catalog number 639562). Quantitative real time PCR for the following genes was performed using Assay-on-Demand primer probes from Applied Biosystems (See Post-text Table 8-1 for catalog numbers): B2M, ERRγ, ERRβ, ERRα, PGC-1α, PGC-1β, PPARα, PPARγ, PPARδ, COX-4, cytochrome c, UQCRB, CPT-1b, LCAD, MCAD, IDH3a, ATP-5b, UCP-2, and UCP-3.
Taqman real time quantitative PCR was performed and analyzed following the manufacturer's instructions (Applied Biosystems). Specifically, amplification was performed in triplicate, in a 10 μl reaction mixture. The reaction mixture included: 1× TaqMan® Universal PCR Master Mix (Applied Biosystems, catalog number 4304437), 1× of Assay-on-Demand primer probe, and 2 μl of cDNA sample. Gene expression was calculated by normalizing to total cDNA as measured by B2M endogenous control (Applied Biosystems, catalog number Mm00437762_m1). The samples were initially incubated for 2 min at 50° C. for optimum uracyl-N-glycosylase activity. The PCR program started with a 95° C. denaturing for 10 min, followed by 40 cycles of 95° C./15 sec and 60° C./1 min in a 384-well thermal cycler (Perkin-Elmer Applied Biosystems). Each amplification run contained “No Template” controls (buffer and primers only). Amplification data were collected by the 7700 Sequence Detector and analyzed using the Sequence Detection System software developed by Perkin-Elmer (Applied Biosystems). The fractional cycle number reflecting a positive PCR result is called the cycle threshold (Ct).
Average gene expression values were calculated for each group relative to B2M, using 2^−ΔΔCt (as described by Applied Biosystems, Foster City, Calif.) with the expression in the vehicle treated cells (0 μM) normalized to a value of 1. The data are expressed as mean±SEM (n=3 replicate wells). Statistical significance was measured using Student's t test.

Test [2] relates to primary mouse myotubes. Kind of test: Cytochrome c ELISA in primary mouse myotubes. The test is classed as cell-based. Particulars: 30 μM, 24 hours, vs vehicle. Here is the method: as §1
The cytochrome c enzyme-linked immunosorbent assay (ELISA) was performed using the RatMouse Cytochrome c Immunoassay kit from R&D Systems (catalog number MCTC0, R&D Systems, Minneapolis, Minn.) following the manufacturer's instructions.

Test [3] has as its system primary mouse myotubes. Briefly: Citrate synthase assay in primary mouse myotubes. The class given is cell-based. Particulars: 24 hours. The procedure: as §1
The citrate synthase assay was performed following the procedure described in above in this application.

Test [4] relates to primary mouse myotubes. Kind of test: Respiration assay (oxygen consumption, Clark electrode) in primary mouse myotubes. As to conditions: 30 μM, 24 hr. The class given is cell-based. The procedure: as §1
Cells were washed once with phosphate-buffered saline (PBS) and treated for 5 min at 37° C. with 2 ml of trypsin (Mediatech, catalog number 25-052-CI). Without removing trypsin, 10 ml of DMEM plus 10% FBS was added into each well. The cells were transferred to a 15 ml tube and centrifuged for 5 min at 1000 rpm. The cells were washed once with the medium and pelleted before being resuspended in the assay buffer containing 25 mM glucose (Sigma, catalog number G-5400), 1 mM pyruvate (Invitrogen, catalog number 11360-070) and 2% bovine serum albumin (BSA) (MP Biomedicals, catalog number 103703) in D-PBS (Invitrogen, catalog number 14040-133). The cell suspension was diluted to 1×10^6 cells per ml in the assay buffer and kept at 37° C. until used. Oxygen consumption was measured with a Clark electrode according to the instructions provided by Hansatech (Norfolk, UK). One half of the cell suspension was used for each measurement. […] The rate of respiration was measured by calculating the slope of the flux of oxygen consumption using the software provided by the manufacturer.

The next test concerns the target T2, ERRγ (Homo sapiens, UniProt P62508).
T2 sequence (P62508 1-458): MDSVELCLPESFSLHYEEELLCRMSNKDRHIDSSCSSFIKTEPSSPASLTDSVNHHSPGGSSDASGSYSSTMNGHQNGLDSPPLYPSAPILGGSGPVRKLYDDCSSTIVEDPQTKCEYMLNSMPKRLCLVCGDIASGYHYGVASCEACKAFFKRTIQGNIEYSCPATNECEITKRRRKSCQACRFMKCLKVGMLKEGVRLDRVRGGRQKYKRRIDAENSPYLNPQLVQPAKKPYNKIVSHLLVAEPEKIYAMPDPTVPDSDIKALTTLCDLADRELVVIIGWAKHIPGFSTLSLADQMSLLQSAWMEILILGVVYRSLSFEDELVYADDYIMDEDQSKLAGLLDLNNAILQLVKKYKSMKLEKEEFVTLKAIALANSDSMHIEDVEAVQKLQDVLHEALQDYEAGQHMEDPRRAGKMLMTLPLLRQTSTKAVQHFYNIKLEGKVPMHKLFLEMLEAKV
Particulars: purportedly, Zuercher et al. 2005; cited from earlier work.

The target of a further test is T3, ERRβ (Homo sapiens, UniProt O95718).
T3 sequence (O95718 1-433): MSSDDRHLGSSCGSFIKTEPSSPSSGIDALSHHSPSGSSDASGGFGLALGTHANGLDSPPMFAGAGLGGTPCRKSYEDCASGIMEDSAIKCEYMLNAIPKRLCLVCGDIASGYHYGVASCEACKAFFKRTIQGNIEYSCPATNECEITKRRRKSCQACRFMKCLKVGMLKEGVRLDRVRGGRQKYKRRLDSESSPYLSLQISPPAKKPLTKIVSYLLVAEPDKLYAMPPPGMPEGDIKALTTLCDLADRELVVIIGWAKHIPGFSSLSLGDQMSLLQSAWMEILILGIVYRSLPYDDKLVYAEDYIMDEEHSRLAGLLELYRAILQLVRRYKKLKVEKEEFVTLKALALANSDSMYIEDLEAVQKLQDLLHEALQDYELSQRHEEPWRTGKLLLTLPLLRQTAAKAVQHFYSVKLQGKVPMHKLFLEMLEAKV
As to conditions: purportedly, Zuercher et al. 2005; cited from earlier work.

A further test has as its target T4, ERRα (Homo sapiens, UniProt P11474).
T4 sequence (P11474 1-423): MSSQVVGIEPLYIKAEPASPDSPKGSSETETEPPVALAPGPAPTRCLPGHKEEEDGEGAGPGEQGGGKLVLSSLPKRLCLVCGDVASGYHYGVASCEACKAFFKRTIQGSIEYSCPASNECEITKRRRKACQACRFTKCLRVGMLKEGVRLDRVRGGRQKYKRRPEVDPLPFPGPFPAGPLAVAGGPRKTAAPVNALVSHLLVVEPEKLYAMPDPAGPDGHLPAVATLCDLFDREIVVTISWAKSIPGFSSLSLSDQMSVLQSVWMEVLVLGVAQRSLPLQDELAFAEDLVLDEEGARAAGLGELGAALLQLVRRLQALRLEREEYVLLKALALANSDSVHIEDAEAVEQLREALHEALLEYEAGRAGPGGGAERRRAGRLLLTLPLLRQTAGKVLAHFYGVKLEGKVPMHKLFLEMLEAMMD
As to conditions: Zuercher et al. 2005; cited from earlier work.

The test system of another test is ERs. Particulars: Zuercher et al. 2005; cited from earlier work.
The mark [5] stands for this setting: 30 μM, relative to B2M, vehicle = 1.

Turning to `CCN(CC)c1ccc(/C=N/NC(=O)c2ccc(O)cc2)cc1` [LCN446, N′-(4-(diethylamino)phenylmethylidene)-4-hydroxybenzohydrazide], at (His)6-hERRγ LBD, the “maximal increase in FRET signal” value was found to be 70%. The EC50 on (His)6-hERRγ LBD (titration 100 μM down to 2 nM, 2% DMSO, duplicate, read-out: EC50 of FRET response) worked out at 540 nM.
Turning to `CC(C)c1ccc(/C=N/NC(=O)c2ccc(O)cc2)cc1` [AJQ710, 4-hydroxy-N′-(4-isopropylphenylmethylidene)-benzohydrazide], the “maximal increase in FRET signal” value at (His)6-hERRγ LBD is not above 60%. This compound also returned a UCP-2 highest expression with primary mouse myotubes [1] (10 μM, relative to B2M, vehicle = 1) of 1.5 fold. For the same compound, in the test with primary mouse myotubes [1] (setting [5]), the ATP-5b expression increase turned out to be 1.6 fold, the COX-4 expression increase came out at 2 fold, the CPT-1b expression increase result is on record as “over 3 fold” and the ERRα expression increase came out at 3.7 fold. In addition, in the test with primary mouse myotubes [1] (setting [5]), the ERRβ expression increase came out at 1.5 fold, the ERRγ expression is reported as 1.4 fold, the IDH3α expression increase entry is listed as “over 2 fold” and the LCAD expression increase is 2.8 fold. In the test on primary mouse myotubes [1] (setting [5]), the MCAD expression increase worked out at 1.6 fold, the PGC-1α expression turned out to be 1.9 fold, the PPARγ maximal expression is reported as 2.2 fold and the UCP-3 expression increase entry is given as “over 3 fold”. In the test with primary mouse myotubes [1] (setting [5]), the UQCRB expression increase worked out at 2 fold and the “cytochrome c expression increase” value was determined as 3.7 fold. Further, in the test with primary mouse myotubes [1] (1-30 μM), the PPARα expression result was “no change in expression” and the PPARδ expression entry is recorded as “no change in expression”. The compound also had a PGC-1β expression with primary mouse myotubes [1] (relative to B2M, vehicle = 1) of 1.8 fold. Also, the “increase of cytochrome c protein” value in the test on primary mouse myotubes [2] is given as 88%. Further, in the test on primary mouse myotubes [3] (3 μM), the “increase in citrate synthase activity” value came out at 9%. Further, the “increase in citrate synthase activity” value in the test on primary mouse myotubes [3] (10 μM) is 8%. For the same compound, the “increase in citrate synthase activity” value in the test with primary mouse myotubes [3] (30 μM) was 28%. Further, the “increase in basal respiration” value in the test on primary mouse myotubes [4] (vs vehicle treated controls) turned out to be 37%. Further, the “increase in respiration rate in the presence of FCCP” value in the test with primary mouse myotubes [4] (vs vehicle-treated control cells) is 32%. The “increase in oligomycin-insensitive respiration (proton leak)” value in the test with primary mouse myotubes [4] (not statistically significant) stood at 36%. The “activation of ERRγ” value at ERRγ is given as “activates”. Also, at ERRβ, the “activation of ERRβ (printed ERRP)” value was “activates”. Also, on ERRα, the “activation of ERRα” value is on record as “does not activate”. For the same compound, the “activation of the ERs” value with ERs is “does not activate”.
